Experiment [1] has as its system deposition of mature collagen. Put plainly: Cell-based inhibition assay of mature collagen deposition (immunostaining). To be noted: Cardiac fibroblast; human cardiac fibroblasts, immunostaining of mature collagen I; read-out: pIC50, mature collagen cellular inhibition assay (converted). The procedure:
An adaptation of the collagen deposition assay described by Chen, C. Z. C., et al., British Journal of Pharmacology, 2009, 158, 1196-1209 is used to examine effect of compounds on procollagen I processing and collagen deposition. In the adapted assay, human cardiac fibroblasts are utilized. Processing of procollagen I is determined by a PICP ELISA assay and deposition of mature collagen is determined by immunostaining.
Human cardiac fibroblasts are cultured and maintained until passage 6 in FGM-3 media (Lonza, #CC-3132) in a 37° C. humidified incubator with 5% CO2. They are then seeded in 96-well black wall, clear bottom plates at 10,000 to 15,000 cells per well in eagle's minimum essential media (EMEM, ATCC #30-2003) containing 10% fetal bovine serum (FBS, Life Technologies #10082147), 1% Glutamax (Life Technologies #35050061) and 1% Penicillin and Streptomycin (Life Technologies #15070063). These cultures are placed in 37° C. incubator. The next day, media is removed by aspiration and cells are rinsed with phosphate buffered saline. Crowding media (also called ficoll media) is prepared by adding 112.5 mg/ml of ficoll70 and 75 mg/ml ficoll400 (GE healthcare #17-0310-10 and 17-0300-10, respectively), 100 μM ascorbic acid, 1% Glutamax and 1% Penicillin and Streptomycin to EMEM media. Test compounds (dissolved in DMSO) are diluted into crowding media and then added to the cells. Final concentration of DMSO in crowding media is less than 0.3%. Cells are treated for 24 to 48 hr in a 37° C. incubator. At the end of the treatment period, cell media are collected. The level of PICP in the media is determined by a PICP ELISA assay (Quidel #8003) following the manufacturer's protocol. Potencies of test compounds are calculated by fitting PICP levels, relative to untreated controls, to log (inhibitor) vs. response equation using Graphpad Prism software 5.0 and expressed as pIC50.
For some compounds, deposition of mature collagen is measured by immunostaining in addition to PICP levels. At the end of the treatment period, cells on culture plate are fixed with 100% methanol (prechilled to −20° C.) for 10 min. Then the cells are immunostained with mouse anti-mature collagen I antibody (1:500 dilution, Sigma#C2456), anti-mouse secondary antibody Alexa647 (1:500 dilution, Invitrogen#A21236) and Hoechst (for nuclei, 2 μg/ml, Invitrogen#H3596). Fluorescent image acquisition is done using the Operetta High Content Imaging system (Perkin Elmer). For each image field, the intensity of mature collagen staining is normalized with the number of nuclei. Normalized collagen levels are used to calculate the potency of test compounds with Graphpad Prism software, as described above.

A further experiment has as its target T1, human TLL2 (Homo sapiens, UniProt Q9Y6L7).
T1 construct: amino acids 26-1015 of human TLL2 (NM_012465); made in house
T1 sequence (Q9Y6L7 150-1015): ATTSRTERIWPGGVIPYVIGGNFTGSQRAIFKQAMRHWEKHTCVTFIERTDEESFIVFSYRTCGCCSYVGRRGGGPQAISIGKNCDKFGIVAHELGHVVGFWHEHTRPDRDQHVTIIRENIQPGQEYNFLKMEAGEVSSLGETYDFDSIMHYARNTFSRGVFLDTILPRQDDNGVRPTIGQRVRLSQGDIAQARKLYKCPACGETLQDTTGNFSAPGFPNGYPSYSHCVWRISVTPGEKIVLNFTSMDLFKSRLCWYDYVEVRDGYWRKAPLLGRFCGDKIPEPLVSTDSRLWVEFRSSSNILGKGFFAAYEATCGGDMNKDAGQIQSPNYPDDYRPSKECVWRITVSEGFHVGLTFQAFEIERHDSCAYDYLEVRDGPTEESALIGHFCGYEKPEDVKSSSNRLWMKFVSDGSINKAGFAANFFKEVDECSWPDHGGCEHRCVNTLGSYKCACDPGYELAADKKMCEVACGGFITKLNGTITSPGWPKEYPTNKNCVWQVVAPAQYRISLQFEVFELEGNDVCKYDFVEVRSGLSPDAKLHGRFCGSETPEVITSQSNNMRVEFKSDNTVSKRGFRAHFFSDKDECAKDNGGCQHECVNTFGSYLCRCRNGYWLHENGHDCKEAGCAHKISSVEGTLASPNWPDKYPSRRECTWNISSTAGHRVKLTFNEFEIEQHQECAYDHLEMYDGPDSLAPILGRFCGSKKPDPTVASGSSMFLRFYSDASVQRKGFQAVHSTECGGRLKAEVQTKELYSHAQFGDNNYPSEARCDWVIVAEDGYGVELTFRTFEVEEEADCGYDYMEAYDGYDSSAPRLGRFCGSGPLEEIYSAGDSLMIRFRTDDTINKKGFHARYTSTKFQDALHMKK
The experiment can be described thus: Enzyme inhibition assay for human TLL2. Format: biochemical. To be noted: 18 nM TLL2, 5 μM promyostatin peptide substrate; read-out: pIC50, TLL2 enzyme inhibition assay (converted). The source says:
Buffer components are purchased from Sigma-Aldrich (St. Louis, Mo.) or an equivalent supplier. The promyostatin peptide substrate is custom synthesized by American Peptide Company (Sunnyvale, Calif.) using the myostatin protein sequence (Uniprot accession number 014793) surrounding the cleavage site reviewed in Hopkins, D. R., et al., 2007 Matrix Biology, 26, 508-523. The procollagen peptide substrate used in the high enzyme BMP1 cleavage assay is custom synthesized by 21st Century Biochemicals (Marlboro, Mass.) using the procollagen Iα protein sequence (Uniprot accession number P02452) surrounding the cleavage site reviewed in Hopkins, D. R., et al., 2007 Matrix Biology, 26, 508-523.
The DNA sequence encoding amino acids 26-1015 of human TLL2 (NM_012465) is PCR amplified from DNA template with the human RAGE signal sequence at the N-terminus and Avi-6×His epitope tags at the C-terminus ([…]). […]
Inhibition of human TLL1 and TLL2 recombinant enzymes is measured in 10 ul endpoint assays in 384-well format using the same promyostatin peptide substrate employed in the above Enzyme Inhibition Assay for human BMP1. […] TLL1 and TLL2 reactions are quenched with 5 μl of 0.5 M EDTA and plates are read on a ViewLux (Perkin Elmer) multilabel plate reader using a 480 nm excitation filter and 540 nm emission filter. […]

Turning to `CCCCC[C@@H](C(=O)NCNC(=O)c1ccc(-c2ccccc2)o1)[C@@H](CC)N(O)C=O` [WO2015/104684 Example 24, N—(((R)-2-((R)-1-(N-hydroxyformamido)propyl)heptanamido)methyl)-5-phenylfuran-2-carboxamide], the IC50 in experiment [1] is under 1000 nM; on human TLL2, under 794 nM.

The values above are taken from patent publication US20180362485A1, “N-HYDROXYFORMAMIDE COMPOUNDS AND COMPOSITIONS COMPRISING THEM FOR USE AS BMP l, TLL1 AND/OR TLL2 INHIBITORS” (GlaxoSmithKline Intellectual Property (No. 2) Limited, priority 2015, published 2018).
